In data set [1] the test system is Streptomyces sp. Description: Antibacterial activity against Streptomyces sp. ATCC 23836. Type of data set: functional.
In data set [2] the test system is Botrytis cinerea. In words: […] activity against Botrytis cinerea. Type of data set: functional.
The nature of data set [3]: Inhibition of RNA in mouse L1210 cells. It counts as cell-based.
Data set [4] deals with Aeromonas salmonicida. Description: Antimicrobial activity against Aeromonas salmonicida ATCC 14174. Type of data set: functional.
Data set [5] relates to Vibrio anguillarum. Description: Antibacterial activity against Vibrio anguillarum NCMB6. Type of data set: functional.
Data set [6] can be described thus: Toxicity in mouse engrafted with mouse L1210 cells assessed as lethal dose measured per […]. Type of data set: cell-based.
For data set [7], the system named is Brevibacillus brevis. In words: Antibacterial activity against Bacillus brevis. Type of data set: functional.
Data set [8] is described as follows: Inhibition of DNA in mouse L1210 cells. Type of data set: cell-based.
Data set [9] concerns Porphyromonas gingivalis. Description: Antibacterial activity against Porphyromonas gingivalis ATCC 33277 by REMA. It counts as functional.
The subject of data set [10] is Mycobacterium tuberculosis. In words: Antibacterial activity against Mycobacterium tuberculosis ATCC 27294 by REMA. It counts as functional.
The subject of data set [11] is A549. In words: Antiproliferative activity against human A549 cells assessed as inhibition of cell growth at 100 uM by MTT assay relative to control. It counts as functional. (Formazan colour is commonly taken as a measure of viable cells.)
Data set [12] can be described thus: Toxicity in Aphis craccivora assessed as mortality at 100 mg/ml relative to control. On the set-up: dose or concentration left out as unconfirmed.
Data set [13] is described as follows: Toxicity in Myzus persicae assessed as mortality at 0.80 mg/L relative to control. Conditions: at 0.8 µg/mL, dose 0.8 mg/L.
Data set [14] in a line: Toxicity in Aphis gossypii assessed as mortality at 4 mg/L relative to control. Particulars: at 4 µg/mL.
A short description of data set [15]: Toxicity in Nilaparvata lugens assessed as mortality at 100 mg/ml relative to control. On the set-up: dose or concentration left out as unconfirmed.
The nature of data set [16]: Toxicity in Anopheles darlingi larvae measured after 48 hrs. The arrangement: species or system Larva.
The subject of data set [17] is HCT-116. In words: Antiproliferative activity against human HCT-116 cells measured after 48 hrs by MTT assay. It counts as cell-based. Particulars: HCT-116, 48 h.
Data set [18] deals with DU-145. Description: Antiproliferative activity against human DU-145 cells measured after 48 hrs by MTT assay. Type of data set: cell-based. Conditions: DU-145, 48 h.
Data set [19] concerns MCF7. Description: Antiproliferative activity against human MCF7 cells measured after 48 hrs by MTT assay. It counts as cell-based. Conditions: MCF7, 48 h.
Data set [20] can be described thus: Cytotoxicity against human L02 cells measured after 24 hrs by MTT assay. Type of data set: toxicity, cell-based.
In data set [21] the test system is SMMC-7721. In words: Antiproliferative activity against human […] cells measured after 24 hrs by MTT assay. Conditions: SMMC-7721, 24 h. Type of data set: functional, cell-based.
In data set [22] the test system is Pseudomonas aeruginosa. In words: Antibacterial activity against Pseudomonas aeruginosa. It counts as functional.
Data set [23] has as its system Escherichia coli. In words: Antibacterial activity against Escherichia coli ATCC 25922. Type of data set: functional.
Data set [24] has as its system Klebsiella pneumoniae. In words: Antibacterial activity against Klebsiella pneumoniae patient isolate. It counts as functional.
A short description of data set [25]: Toxicity in Spodoptera littoralis larvae. On the set-up: species or system Larva.
Data set [26] can be described thus: Toxicity in Myzus persicae assessed as mortality relative to control.
The test system of data set [27] is Synechococcus elongatus. Description: Antibacterial activity against Synechococcus elongatus PCC 6301 by plate reader method. Type of data set: functional, organism-based.
Data set [28] is described as follows: Inhibition of bradykinin induced dermal vascular permeability in Sprague-Dawley rat blood vessels at 100 mg/kg, ip measured after 5 mins relative to control. Type of data set: functional. Conditions: Blood vessel.
Data set [29] is described as follows: Inhibition of serotonin induced dermal vascular permeability in Sprague-Dawley rat blood vessels at 100 mg/kg, ip measured after 5 mins relative to control. Type of data set: functional. Conditions: Blood vessel.
Data set [30] is described as follows: Inhibition of histamine induced dermal vascular permeability in Sprague-Dawley rat blood vessels at 100 mg/kg, ip measured after 5 mins relative to control. Type of data set: functional. Particulars: Blood vessel.
The target of data set [31] is ATP-sensitive inward rectifier potassium channel 1 (Homo sapiens, UniProt P48048). In words: Inhibition of ROMK (unknown origin) by Thallium Efflux assay.
Data set [32] deals with Leishmania amazonensis. In words: Antileishmanial activity against Leishmania amazonensis incubated for 24 hrs. Type of data set: functional, organism-based.
The test system of data set [33] is P388. Description: Cytotoxicity against mouse P388 cells measured after 48 hrs by MTT assay. It counts as functional, cell-based. Conditions: P388, 48 h.
Data set [34] deals with Escherichia coli. In words: Antibacterial activity against Escherichia coli. It counts as functional.
In data set [35] the test system is Staphylococcus aureus. Description: Antibacterial activity against Staphylococcus aureus. It counts as functional.
Data set [36] can be described thus: Reversal of heartbeat inhibition in embryonic chicken cardiac cells. Type of data set: functional, cell-based, Gallus gallus. Particulars: cardiac muscle cell.
The nature of data set [37]: Toxicity in Myzus persicae assessed as mortality at 20 mg/L relative to control. Particulars: at 20 µg/mL.
The nature of data set [38]: Inhibition of mitochondrial complex III (unknown origin). The arrangement: species or system Homo sapiens.
The nature of data set [39]: Toxicity in Nilaparvata lugens assessed as mortality at 20 mg/L relative to control. Conditions: at 20 µg/mL.
The nature of data set [40]: Toxicity in Aphis craccivora assessed as mortality at 20 mg/L relative to control. Conditions: at 20 µg/mL.

≈ marks a conversion by molar mass, not a printed value.

ATP-sensitive inward rectifier potassium channel 1, sequence (P48048 whole entry): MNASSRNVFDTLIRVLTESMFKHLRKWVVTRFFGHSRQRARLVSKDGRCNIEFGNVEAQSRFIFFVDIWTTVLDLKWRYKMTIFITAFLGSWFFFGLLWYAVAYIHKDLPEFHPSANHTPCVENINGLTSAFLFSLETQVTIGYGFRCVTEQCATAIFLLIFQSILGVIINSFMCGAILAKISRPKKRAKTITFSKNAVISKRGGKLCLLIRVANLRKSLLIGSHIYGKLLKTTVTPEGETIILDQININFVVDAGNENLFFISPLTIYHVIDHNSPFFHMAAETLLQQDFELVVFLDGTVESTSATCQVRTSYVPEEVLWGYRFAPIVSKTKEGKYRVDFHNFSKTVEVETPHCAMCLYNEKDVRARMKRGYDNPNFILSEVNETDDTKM

`NC1=CC(=O)O/C1=C/C=O`: the MIC50 in [1] amounted to 100 mg/L (≈ 719 µM); in [2] it was 100 mg/L (≈ 719 µM); in data set [4], 100 mg/L (≈ 719 µM); in data set [5] it was 100 mg/L (≈ 719 µM); in data set [7], 50 mg/L (≈ 359 µM). Moreover, the IC50 was 0.6 mg/L (≈ 4.31 µM) in data set [3] and 0.4 mg/L (≈ 2.88 µM) in data set [8]. The LC50 in data set [6] was determined as 6.25 mg.

Take `COc1cc(C2C3=C(COC3=O)Nc3cc4c(cc32)OCO4)c([N+](=O)[O-])cc1OC` (stereo unspecified): the values for the MIC50 in [9] and in data set [10] were 25 mg/L (≈ 60.6 µM) and 250 mg/L (≈ 606 µM), respectively.

On to `CCOC(=O)[C@H](Cc1ccccc1)NC1=C(Cl)C(=O)O[C@@H]1O[C@@H]1C[C@H](C)CC[C@H]1C(C)C`, for which the inhibition at 100 µM in data set [11] came to 91.8%.

For `O=C1C=C(N(Cc2ccc(Cl)nc2)CC(F)F)CO1`, the Activity in [12] stood at 90%; in data set [13] it was 100%; in [14] it was 98%; in data set [15], 100%. The compound further yielded an LC50 in data set [16] of 1.18 mg/L (≈ 4.09 µM).

For the compound `NCCN(Cc1ccc(Cl)nc1)C1=CC(=O)OC1`, in data set [13], the Activity was 100%.

In the case of `CC[C@H](C)[C@H](NC1=C(Br)C(=O)O[C@@H]1O[C@@H]1C[C@H](C)CC[C@H]1C(C)C)C(=O)OC`, the inhibition at 100 µM in data set [11] came out at 97.2%.

Regarding `COC1OC(=O)C(Cl)=C1N1CCN(CCCCCC[C@H]2CN([C@@H]3OC4O[C@]5(C)CC[C@H]6[C@H](C)CC[C@@H]([C@H]3C)[C@@]46OO5)CCS2(=O)=O)CC1` (stereo partly specified), the IC50 in [17] was 0.01 µM; in [18], 0.02 µM; in data set [19] it was 0.01 µM; in data set [21], 0.03 µM. Also, the IC50 at 24 h in data set [20] came out at 70 µM.

For `COC1OC(=O)C(Br)=C1n1cnc2cc(C)c(C)cc21` (stereo unspecified), the results for the MIC50 in data set [22], in data set [23] and in [24] were 8 mg/L (≈ 23.7 µM), 2 mg/L (≈ 5.93 µM) and 16 mg/L (≈ 47.5 µM), respectively.

On to `CCCC[C@@]12[C@@H]3C[C@H]4[C@H]5[C@H](C)/C(=C6/OC(=O)C(C)=C6OC)O[C@]5(O3)[C@@H]1CCN42`, for which the LC50 in data set [25] was 2 mg/L (≈ 5.16 µM).

Turning to `N#CC1(c2cncc(Cl)c2)CC2CCC(C1)N2CC(F)F` (stereo unspecified), the Activity in data set [26] is greater than 80%.

In [27], `Cc1ccc(NC2=C(Cl)C(=O)O[C@H]2[C@H](O)c2ccc(-c3ccccc3)cc2)cc1` gave an IC50 of 4.4 µM.

As for `O=C(N[C@H]1C[C@@H]1c1ccccc1)C1=C(Nc2ccc(Cl)cc2)COC1=O`, the inhibition in vivo at 100 mg/kg in data set [28] turned out to be 100%; in data set [29], 94%; in data set [30], 92%.

Regarding `Cc1c([C@H](O)CN2CCC3(CC2)CCN(C2=C(F)C(=O)OC2)CC3)ccc2c1COC2=O`, in data set [31], half-maximal inhibition (IC50) was put at 0.007 µM.

`O=C1O[C@@H]([C@H](O)c2ccc(-c3ccccc3)cc2)C(Nc2ccc(Br)cc2)=C1Cl` had an IC50 in [27] of 1.3 µM.

With `COc1cc2c(c(OC)c1OC)C(c1ccc(C(F)(F)F)cc1)C1=C(COC1=O)N2` (stereo unspecified), the IC50 in [32] worked out at 6.22 µM.

Regarding `COc1cc([C@@H]2c3cc4c(cc3[C@H](O)[C@H]3COC(=O)[C@H]23)OCO4)cc(OC)c1OC` [PODOFILOX], inhibition in data set [33] was half-maximal at 10.4 µM (IC50).

For `CCN(CC)C1=C(Cl)C(=O)OC1OC` (stereo unspecified), the inhibition at 100 µM in data set [11] worked out at 80.5%.

For the compound `O=C1OC2C(=C1Cl)N2Cc1ccccc1` (stereo unspecified), the results for the MIC50 in [34], in data set [22] and in [35] were 8 mg/L (≈ 36.1 µM), 16 mg/L (≈ 72.2 µM) and 4 mg/L (≈ 18 µM), respectively.

As to `COc1cc(C2C3=C(COC3=O)Nc3cc4c(cc32)OCO4)cc(OC)c1OC` (stereo unspecified), in data set [33], 4.53 µM corresponded to half-maximal inhibition (IC50).

For `CCOC(=O)C1C(C)NC2=C(C(=O)OC2)C1c1ccccc1OC(F)F` (stereo unspecified), the EC50 in [36] is 0.06 µM.

`O=C1C=C(N(CCF)Cc2cnc(Cl)c(Cl)c2)CO1`: the Activity in [37] was determined as 100%.

On to `CCCCCC[C@H](O)CCC[C@H](O)[C@H]1CC[C@H]([C@H]2CC[C@H]([C@H](O)CCCCCCCCCCCCC3=C(N)[C@H](C)OC3=O)O2)O1`, for which the IC50 in [38] amounted to 0.04 µM.

On to `CN(Cc1ccc(Cl)nc1)C1=C(Br)C(=O)OC1OCCF` (stereo unspecified), for which the Activity in data set [39] is listed as 92%; in data set [40], 100%.

By MIC50 is commonly meant the lowest concentration that inhibits either 50% of growth or 50% of the strains tested, depending on the study. By IC50 is commonly meant the concentration that inhibits the measured activity by half. As a reminder, the inhibition is the relative decrease from the control value, in per cent. One may read the inhibition in vivo as the percentage by which the read-out fell short of the control. As a reminder, the EC50 is the midpoint of the concentration-response curve.

Source of the values: ChEMBL document CHEMBL5104114, “Synthesis and medicinal chemistry of tetronamides: Promising agrochemicals and antitumoral compounds” (Bioorg Med Chem, 2022).
